The test system of data set [1] is AMD ARPE-19 transmitochondrial cybrid cells. Briefly: Mitochondrial membrane potential (JC-1) assay. The data set is classed as cell-based, human. The conditions noted are these: AMD cybrids; fenofibrate 50 μM; compared to untreated. How it is done:
Mitochondrial membrane potential (JC-1) assay: The JC-1 assay uses a unique cationic dye i.e., 5,5′,6,6′-tetrachloro-1,1′,3,3′-tetraethylbenzimidazolylcarbocyanine iodide, to detect loss of mitochondrial membrane potential. JC-1 1× reagent was prepared by diluting 100× JC-1 reagent in assay buffer to 1:100 dilutions. […] 1× JC-1 reagent was added to cells and incubated for 15 min at 37° C. JC-1 reagent in the wells was then replaced with DPBS and fluorescence was measured as follows: Red fluorescence (Live cells): Excitation 550 nm and Emission 600 nm; Green fluorescence (Apoptotic cells): Excitation 485 nm and Emission 535 nm. Ratio of Red/Green was used for analysis. Lower ratio corresponded to higher apoptotic/dead cell number.

The test system is the same in data set [2]. In words: MitoSOX assay (mitochondrial superoxide). The class given is cell-based, human. To be noted: AMD cybrids, fenofibrate 50 μM. As for the experimental part: MitoSOX assay: The fluorogenic MitoSOX Red dye (Cat. #M36008, Invitrogen, Grand Island, N.Y., USA) is a live-cell permeant reagent that detects mitochondrial superoxide in cells. MitoSOX Red reagent oxidized by superoxide has red fluorescence that can be quantified. AMD cybrids were plated in 24-well tissue culture plates. Stock solution of 5 mM MitoSOX reagent was diluted with HBSS (Hank's balanced salt solution) buffer to obtain a 5 μM working solution. Cells were treated with 5 μM MitoSOX reagent and incubated for 10 min at 37° C. Cells were then washed with HBSS buffer, and fluorescence was measured at excitation/emission maxima of 510/580 nm.

The test system is the same in data set [3]. In words: CellLight Mitochondrial GFP staining and confocal microscopy. The class given is cell-based, human. To be noted: fenofibrate 50 μM. As for the experimental part:
CellLight Mitochondrial GFP staining and Confocal microscopy: Staining with CellLight Mitochondrial GFP probe (Cat. #C10600, Thermo Fisher Scientific, MA, USA) and confocal microscopy were performed as described previously (74). Cells were plated in 4-well tissue culture chamber slides, stained with CellLight mtGFP for 24 hr and incubated overnight at 37° C. The cells were washed with 1×TBS (Tris buffered saline), fixed in paraformaldehyde and mounted in DAPI. Confocal z-stack images were captured using the LSM-700 Confocal microscope (Zeiss, Thornwood, N.Y., USA). Images were quantified using ZEN 2 lite software (Zeiss).
RPE cells were transduced with CellLight reagent which is a GFP-E1 alpha pyruvate dehydrogenase leader peptide construct with a mammalian promoter. This fluorescent baculoviral fusion construct provides precise targeting to mitochondria.

Data set [4] has the same test system. Briefly: Cell viability assay (MTT assay). The conditions noted are these: for cell viability, Mean ± SEM: AMD UN = 1.
Method: All cybrids used in this study belonged to the ‘H’ mitochondrial DNA haplogroup. […] Stock solutions of 20 mM kaempferol and 10 mM telmisartan were prepared in DMSO and were diluted in culture media to obtain the following working concentrations: kaempferol at 5 μM, 10 μM, and 20 μM; telmisartan at 2.5 μM, 5 μM, and 10 μM. Cell viability assay (MTT assay): The numbers of viable cells were measured using the MTT (3-(4,5-dimethylthiazol-2-yl)-2,5-diphenyltetrazolium bromide) assay. […] Cells were incubated at 37° C. for 1 h, followed by addition of DMSO. Absorbance was measured at 570 nm and background absorbance measured at 630 nm. Normalized absorbance values were obtained by subtracting background absorbance from signal absorbance. The colorimetric signal obtained was proportional to the cell number.
Another data set relates to PGC-1α. In words: qRT-PCR gene expression of PGC-1α in AMD RPE cybrid cells. To be noted: 72 hr, AMD UN = 1. The data set is classed as cell-based, human. As for the experimental part: (§1) Quantitative Real-Time PCR: RNA extraction, cDNA synthesis, and qRT-PCR analysis were performed as described previously (73). QuantiTect Primer Assays were used to study the expression of Caspase-3 gene (Cat. #QT00023947, Qiagen, Germantown, Md.), BAX gene (Cat. #QT00031192, Qiagen), HIF1α gene (Cat. #QT00083664, Qiagen), CFH gene (Cat. #QT00001624, Qiagen), and SOD2 gene (Cat. #QT01008693, Qiagen). KiCqStart® SYBR® green primers were used to examine the expression of PGC-1a, NRF-1, NRF-2, PPAR-α, PPAR-γ, VEGF, IL-18, and IFNB1 genes (Cat. #kspq12012, Sigma, St. Louis, Mo.). Specific housekeeper genes used were HPRT1 (Cat. #QT00059066, Qiagen), ALAS variant 1 (Cat. #QT01160467, Qiagen), and HMBS (Cat. #QT00014462). TaqMan gene expression master mix (Cat. #4369016, Life Technologies) and TaqMan gene expression assays were used to examine the expression of the MT-RNR2 gene (Assay ID: Hs02596860_s1, Life Technologies), for which GAPDH (Assay ID: Hs02786624_g1, Life Technologies) was used as a housekeeper gene. Data analysis was performed using ΔΔCt method which was calculated by subtracting ΔCt of the AMD group from ΔCt of the normal group. ΔCt was the difference between the Cts (threshold cycles) of the target gene and Cts of the housekeeper gene (reference gene). Fold change was calculated using the following formula: Fold change=2^ΔΔct.
Background: Quantitative PCR measures a nucleic acid by following its amplification.

In another data set the test system is SOD2. Briefly: qRT-PCR gene expression of SOD2 in AMD RPE cybrid cells. The conditions noted are these: 72 hr, AMD UN = 1. The class given is cell-based, human. As for the experimental part:
as §1

The subject of a further data set is Caspase-3. Briefly: qRT-PCR gene expression of Caspase-3 in AMD RPE cybrid cells. The data set is classed as cell-based, human. The conditions noted are these: 72 hr; for Caspase-3 gene expression, Mean ± SEM: AMD UN = 1. How it is done:
as §1

The subject of a further data set is IL-18. In words: qRT-PCR gene expression of IL-18 in AMD RPE cybrid cells. The class given is cell-based, human. The conditions noted are these: 72 hr, AMD UN = 1. As for the experimental part: as §1
Another data set concerns VEGF. Briefly: qRT-PCR gene expression of VEGF in AMD RPE cybrid cells. The class given is cell-based, human. To be noted: 72 hr; for VEGF gene expression, Mean ± SEM: AMD UN = 1. How it is done:
as §1

For the next data set, the system named is esterase. Briefly: fenofibrate to fenofibrate* conversion (first pass) and its block by esterase inhibitors. To be noted: co-administered with fenofibrate.
The mark [5] stands for this setting: only kaempferol 20 μM, compared to untreated AMD cybrids.

Molecules are shown by their SMILES.

Take `CC(C)OC(=O)C(C)(C)Oc1ccc(C(=O)c2ccc(Cl)cc2)cc1` [fenofibrate]: the “increased mitochondrial membrane potential (JC-1 assay)” value in [1] turned out to be 116%. In data set [2] (AMD UN = 1), the “mitochondrial superoxides, MitoSOX fluorescence (mean±SEM)” value was found to be 0.77±0.04. For the same molecule, the “lower amount of mitochondrial superoxides (MitoSOX assay)” value in [2] (compared to untreated) was 23%. In addition, the “mtGFP fluorescence intensity (mean±SEM)” value in data set [3] (AMD UN = 1) is 2.73±0.39. In addition, the “increase in mtGFP fluorescence intensity” value in [3] (compared to untreated) is listed as 173%. In addition, the “cell viability, Mean ± SEM” value in data set [4] (48 hr, fenofibrate 50 μM only) is recorded as 1.33 ± 0.09; in data set [4] (72 hr, fenofibrate 50 μM only) it was 1.37 ± 0.07. This molecule gave a higher cell viability in data set [4] (AMD cells, fenofibrate 50 μM, compared to untreated) of 51%.

For `O=c1c(O)c(-c2ccc(O)cc2)oc2cc(O)cc(O)c12` [kaempferol, 3,5,7-trihydroxy-2-(4-hydroxyphenyl)-4H-1-benzopyran-4-one], in the data set with PGC-1α (kaempferol 20 μM only), the “PGC-1a gene expression, Mean ± SEM” value is listed as 1.82 ± 0.57. For the same molecule, in the data set on SOD2 (kaempferol 20 μM only), the “SOD2 gene expression, Mean ± SEM” value is on record as 0.88 ± 0.22. For the same molecule, the “Caspase-3 gene expression, Mean ± SEM” value in the data set with Caspase-3 (kaempferol 20 μM only) amounted to 0.74 ± 0.045. Besides, the Caspase-3 downregulation with Caspase-3 (setting [5]) was determined as 26%. Besides, the “IL-18 gene expression, Mean ± SEM” value in the data set on IL-18 (kaempferol 20 μM only) is 0.78 ± 0.13. Besides, in the data set with VEGF (kaempferol 20 μM only), the “VEGF gene expression, Mean ± SEM” value was determined as 0.42 ± 0.16. In the data set on VEGF (setting [5]), this molecule displayed a VEGF downregulation of 58%. Moreover, the “block of conversion of fenofibrate to fenofibrate*” value in the data set with esterase is reported as “largely block conversion to fenofibrate*”. The “cell viability, Mean ± SEM” value is reported as 1.037 ± 0.1413 in [4] (48 hr, kaempferol 20 μM only); “did not show any difference in cell viability” in data set [4] (72 hr, kaempferol 20 μM only); 1.259 ± 0.1060 in data set [4] (72 hr, kaempferol 20 μM only, listed as kempferol).

Turning to `CCCc1nc2c(C)cc(-c3nc4ccccc4n3C)cc2n1Cc1ccc(-c2ccccc2C(=O)O)cc1` [telmisartan], the “PGC-1a gene expression, Mean ± SEM” value in the data set with PGC-1α (telmisartan 10 μM only) amounted to 1.40 ± 0.48. Further, the “SOD2 gene expression, Mean ± SEM” value in the data set on SOD2 (telmisartan 10 μM only) is recorded as 1.71 ± 0.46. The “Caspase-3 gene expression, Mean ± SEM” value with Caspase-3 (telmisartan 10 μM only) was determined as 0.86 ± 0.06. For the same molecule, in the data set with IL-18 (telmisartan 10 μM only), the “IL-18 gene expression, Mean ± SEM” value is 0.71 ± 0.25. Moreover, in the data set on VEGF (telmisartan 10 μM only), the “VEGF gene expression, Mean ± SEM” value came to 0.52 ± 0.19. Also, in the data set on esterase, the “block of conversion of fenofibrate to fenofibrate*” value is reported as “largely block conversion to fenofibrate*”. The “cell viability, Mean ± SEM” value in data set [4] (48 hr, telmisartan 10 μM only) was determined as 0.95 ± 0.11; in data set [4] (72 hr, telmisartan 10 μM only), 0.99 ± 0.09.

Source of the values: patent publication US20220211654A1, “MATERIALS AND METHODS FOR TREATING AGE-RELATED MACULAR DEGENERATION” (THE REGENTS OF THE UNIVERSITY OF CALIFORNIA, priority 2019, published 2022).
